Measurements: paper PMC3634352 (Journal of the American Chemical Society, 2013)
pKi: −log10 of the molar value.

How the values were obtained:
E. coli PBP1b = E. coli PBP1b (Escherichia coli, UniProt P02919); assay: in vitro PGT inhibition; assay type: biochemical
S. aureus SgtB [1] = biological target: T1, S. aureus SgtB (Staphylococcus aureus, UniProt Q99T05); assay type: biochemical
T1 sequence (Q99T05 1-269): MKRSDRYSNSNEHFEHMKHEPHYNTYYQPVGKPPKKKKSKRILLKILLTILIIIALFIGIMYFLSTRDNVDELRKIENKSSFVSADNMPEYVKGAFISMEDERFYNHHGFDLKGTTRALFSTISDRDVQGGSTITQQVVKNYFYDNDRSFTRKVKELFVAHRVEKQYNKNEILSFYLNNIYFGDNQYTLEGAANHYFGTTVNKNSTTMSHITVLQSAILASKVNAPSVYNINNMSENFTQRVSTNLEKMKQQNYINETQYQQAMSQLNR

S. aureus SgtB [2] = biological target: T1, S. aureus SgtB; assay type: binding; details: for drop in FP (probe displacement) when used instead of moenomycin: detergent controls
[3] = background statement; cited from earlier work

Sequence of E. coli PBP1b (P02919 whole entry): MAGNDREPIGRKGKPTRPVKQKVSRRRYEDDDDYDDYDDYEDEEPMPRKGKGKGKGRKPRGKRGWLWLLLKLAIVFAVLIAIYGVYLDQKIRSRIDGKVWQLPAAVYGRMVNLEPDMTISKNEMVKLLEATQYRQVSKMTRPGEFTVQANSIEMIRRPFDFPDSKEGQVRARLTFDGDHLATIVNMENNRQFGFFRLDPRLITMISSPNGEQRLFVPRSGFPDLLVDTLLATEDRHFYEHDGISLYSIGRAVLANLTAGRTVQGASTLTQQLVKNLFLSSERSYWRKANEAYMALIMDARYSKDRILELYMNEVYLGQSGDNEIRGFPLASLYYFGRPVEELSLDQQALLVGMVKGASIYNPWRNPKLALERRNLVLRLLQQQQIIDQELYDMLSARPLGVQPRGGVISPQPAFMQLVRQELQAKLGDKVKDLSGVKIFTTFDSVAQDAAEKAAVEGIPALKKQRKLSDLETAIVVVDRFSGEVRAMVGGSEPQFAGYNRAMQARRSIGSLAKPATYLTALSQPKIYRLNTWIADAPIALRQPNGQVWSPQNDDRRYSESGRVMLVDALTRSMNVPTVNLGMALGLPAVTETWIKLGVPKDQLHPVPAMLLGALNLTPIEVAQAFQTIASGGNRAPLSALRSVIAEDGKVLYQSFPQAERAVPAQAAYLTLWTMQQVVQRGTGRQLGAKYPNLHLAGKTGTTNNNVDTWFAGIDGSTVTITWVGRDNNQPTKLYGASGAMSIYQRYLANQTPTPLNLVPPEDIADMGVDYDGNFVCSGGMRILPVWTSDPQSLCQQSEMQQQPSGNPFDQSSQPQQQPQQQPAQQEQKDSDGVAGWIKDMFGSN

Compound | inhibition of enzyme (in words) (E. coli PBP1b) | inhibition of enzyme (in words) (S. aureus SgtB [1]) | pKi (S. aureus SgtB [2]; read-out: Ki, displacement of probe 2, probe 2 75 nM, S. aureus SgtB 0.2 μM) | oral bioavailability [3] | serum half life [3] | drop in FP (probe displacement) when used instead of moenomycin (S. aureus SgtB [2])
moenomycin A [compound 1] | low-nanomolar inhibition | low-nanomolar inhibition | 6.19 | poor oral bioavailability | long serum half life | –
CCCCCCCCCCCCO[C@@H]1O[C@H](CO)[C@@H](O[C@H]2O[C@H](CO)[C@@H](O)[C@H](O)[C@H]2O)[C@H](O)[C@H]1O [dodecyl maltoside] | – | – | – | – | – | no significant drop in FP
tween-20 | – | – | – | – | – | no significant drop in FP
